Results taken from US6528251B2, “Method of managing the chemotherapy of patients who are HIV positive based on the phenotypic drug sensitivity of human HIV strains” (Virco N.V., priority 1996, dated 2003).
Like-named read-outs stand apart in the source and are kept apart here.

How the values were obtained:
Type in all cases: cell-based, HIV-1
[1] = system: Recombinant wild type HIV strain recIIIB; experiment: Antiviral MT4/MTT assay with reference virus recIIIB
Experimental: (§1) After titration of the new viruses, the stocks were used for antiviral experiments in the presence of serial dilutions of different HIV inhibitors. Titres of the harvested supematants were determined by limited serial dilution titration of virus in MT4 cells.
(§2) Viruses with a useful titre were used in antiviral experiments. For this purpose, 96-well microtitre plates were filled with 100μl of complete culture medium. Subsequently, stock solutions of compounds were added in 25 μl volumes to series of duplicate wells. HIV- and mock-infected cell samples were included for each drug (or drug combination). Exponentially growing MT4 cells were then transferred to the microtitre plates at a density of 150,000 cells/ml. The cell cultures were then incubated at 37° C. in a humidified atmosphere of 5% CO2. Five days after infection, the viability of the mock- and HIV-infected cells was examined spectrophotometrically by the M1T method (Pauwels, R. et al. J. Virol. Meth. (1988), 20: 309-321) as described in Section 6 below.
(§3) To each well of the microtiter plates, 20 μl of a solution of MTT (7.5 mg/ml in PBS) was added. The plates were further incubated at 37° C. for 1 h. Then, 150 μl of medium was removed without disturbing the MT4 cell clusters containing the formazan crystals. Solubilization of the formazan crystals was achieved by adding 100 μl 5% Triton X-100 in acidified isopropanol (5 ml concentrated HCl per liter solvent). Complete dissolution of the formazan crystals was obtained after the plates had been placed on a plate shaker for 10 min. Finally the absorbances were read at two wavelengths (540 and 690 nm). From these optical density (OD) data, 50% inhibitory (IC50) and 50% cytotoxic (CC50) concentrations were derived.

[2] = system: recombinant virus from patient viral RNA (Example 5, 3TC resistant HIV strains); experiment: Recombinant virus assay (MT4/MTT), patient of Example 5 (AZT, then AZT+3TC therapy); conditions: for ratio (1)/(2): Table 1, patient mean IC50 / recIIIB IC50, Example 5
Experimental: (§4) RNA was isolated from 100 μl of plasma according to the method described by Boom, R. et al. (1990, supra), and was reverse transcribed with the GeneAmp reverse transcriptase kit (Perkin Elmer) as described by the manufacturer and using an HIV-1 specific downstream primer (OUT3: 5′-CATTGCTCTCCAATTACTGTGATATTTCTCATC-3′; SEQ ID NO: 1). PCR on reverse transcribed RNA was performed with inner and outer primers as described by Kellam, P. and Larder, B. A. (1994, supra). After chloroform extraction and centrifugation on Centricon 100 columns or centrifugation on anion-exchange spin columns (Quiagen), the isolated PCR product was ready for use in the transfection reactions.
(§5) MT4 cells were subcultured at a density of 250,000 cells/ml before transfection (exponential growth phase). Cells were pelleted and resuspended in phosphate buffered saline (PBS) at a concentration of […]. A 0.8 ml portion (2.5 10E6 cells/ml) was used for each transfection. Transfection was performed with the Bio-Rad Gene pulser making use of 0.4 cm electrode cuvettes. Cells were electroporated in the presence of […] of linearised pHIVΔRT plasmid and approximately 5 μg of RT PCR product at 250SF and 300 V, followed by a 30-min incubation at room temperature. Subsequently, 10 ml of fresh culture medium was added to the cell suspension and incubation was performed at 37° C. in a humidified atmosphere of 5% CO2.
(§6) During 7 to 10 days following the transfection, cells were monitored for the appearance of cytopathogenic effect (CPE). In the absence thereof, cells were subcultured in different flasks. Subsequently, culture supernatants of transfected cells were used to create a stock of recombinant virus and stored in 1.5 ml aliquots at −70° C.
as §1, §2, §3
An HIV infected patient who received AZT from December 1989 until an undocumented later date, and switched to a combined chemotherapy of AZT+3TC (1:1) from February 1994 until October 1995 donated plasma whose susceptibility to a number of RT inhibitors was determined according to the above described protocol of Example 1. Recombinant wild type HIV strain recIIIB was used in said protocol as a reference HIV virus.

[3] = system: recombinant virus from patient viral RNA (Example 6, drug-naive patient); experiment: Recombinant virus assay (MT4/MTT), drug-naive patient of Example 6; conditions: for IC50: Human immunodeficiency virus 1, Table 2, Example 6 patient virus; for ratio (1)/(2): Table 2, patient mean IC50 / recIIIB IC50, Example 6
Experimental: as §4, §5, §6, §1, §2, §3
A drug-naive HIV infected patient donated plasma whose susceptibility to a number of RT inhibitors was determined according to the above described protocol of Example 1. Recombinant wild type HIV strain recIIIB was used in said protocol as a reference HIV virus.

[4] = system: recombinant virus from patient viral RNA (Example 7, drug-naive patient); experiment: Recombinant virus assay (MT4/MTT), drug-naive patient of Example 7; conditions: for IC50: Human immunodeficiency virus 1, Table 3, Example 7 patient virus; for ratio (1)/(2): Table 3, patient mean IC50 / recIIIB IC50, Example 7
Experimental: as §4, §5, §6, §1, §2, §3
A drug-naive HIV-infected patient donated plasma whose susceptibility to a number of RT inhibitors was determined according to the protocol set out in Example 1. Recombinant wild type HIV strain recIIIB was used as a reference HIV virus.

[5] = system: recombinant virus from patient viral RNA (Example 8); experiment: Recombinant virus assay (MT4/MTT), patient of Example 8 (therapy history AZT, 3TC and loviride); conditions: for IC50: Human immunodeficiency virus 1, Table 4, Example 8 patient virus; for ratio (1)/(2): Table 4, patient mean IC50 / recIIIB IC50, Example 8
Experimental: as §4, §5, §6, §1, §2, §3
(§7) An HIV-infected patient with a therapy history including AZT, 3TC and loviride donated plasma whose susceptibility to a number of RT inhibitors was determined according to the protocol set out in Example 1. Recombinant wild type HIV strain recIIIB was used as a reference HIV virus.

[6] = system: recombinant virus from patient viral RNA (Example 9); experiment: Recombinant virus assay (MT4/MTT), patient of Example 9 (multiple nucleoside analogue RT-inhibitors); conditions: for IC50: Human immunodeficiency virus 1, Table 5, Example 9 patient virus; for ratio (1)/(2): Table 5, patient mean IC50 / recIIIB IC50, Example 9
Experimental: as §4, §5, §6, §1, §2, §3
as §7, with “multiple nucleoside analogue RT-inhibitors” for “AZT, 3TC and loviride”

[7] = Human immunodeficiency virus 1, Table 1, reference run of Example 5, read-out: Anti-HIV-1 activity IC50 (μM) recIIIB ref (2)
[8] = Human immunodeficiency virus 1, Table 2, reference run of Example 6, read-out: Anti-HIV-1 activity IC50 (μM) recIIIB ref (2)
[9] = Human immunodeficiency virus 1, Table 3, reference run of Example 7, read-out: Anti-HIV-1 activity IC50 (μM) recIIIB ref (2)
[10] = Human immunodeficiency virus 1, Table 4, reference run of Example 8, read-out: Anti-HIV-1 activity IC50 (μM) recIIIB ref (2)
[11] = Human immunodeficiency virus 1, Table 5, reference run of Example 9, read-out: Anti-HIV-1 activity IC50 (μM) recIIIB ref (2)
[12] = Human immunodeficiency virus 1, Table 6, reference run of Example 10, read-out: Anti-HIV-1 activity IC50 (μM) recIIIB ref (2)
[13] = Human immunodeficiency virus 1, Table 1, Example 5 patient virus, MT4 cells, read-out: Anti-HIV-1 activity IC50 (μM) Exp. 1
[14] = Human immunodeficiency virus 1, Table 1, Example 5 patient virus, MT4 cells, read-out: Anti-HIV-1 activity IC50 (μM) Exp. 2
[15] = Human immunodeficiency virus 1, Table 1, Example 5 patient virus, mean of Exp. 1 and 2, read-out: Anti-HIV-1 activity IC50 (μM) Mean (1)
[16] = MT4 cells, read-out: Anti-HIV-1 activity IC50 (μM) Exp. 1
[17] = MT4 cells, read-out: Anti-HIV-1 activity IC50 (μM) Exp. 2
[18] = mean of Exp. 1 and 2, read-out: Anti-HIV-1 activity IC50 (μM) Mean (1)
[19] = mean, read-out: Anti-HIV-1 activity IC50 (μM) Mean (1)

Nc1ccn([C@@H]2CS[C@H](CO)O2)c(=O)n1 [3TC, lamivudine]
IC50 [1, 7]: 0.56 µM
IC50 [1, 8]: 3.08 µM
IC50 [1, 9]: 1.38 µM
IC50 [1, 10]: 6.3 µM
IC50 [1, 11]: 16.7 µM
IC50 [1, 12]: 4.61 µM
IC50 ([1]; Human immunodeficiency virus 1, read-out: Anti-HIV-1 activity IC50 (μM) recIIIB ref (2), Table 7, reference run of Example 11): 5.18 µM
IC50 ([1]; Human immunodeficiency virus 1, read-out: Anti-HIV-1 activity IC50 (μM) recIIIB ref (2), Table 8, reference run of Example 12): 4.61 µM
IC50 [2, 13]: 31.6 µM
IC50 [2, 14]: 100 µM
IC50 [2, 15]: 65.8 µM
ratio (1)/(2) [2]: 118
IC50 [3, 16]: 1.81 µM
IC50 [3, 17]: 2.02 µM
IC50 [3, 18]: 1.91 µM
ratio (1)/(2) [3]: 1
IC50 [4, 16]: 2.17 µM
IC50 [4, 19]: 2.17 µM
ratio (1)/(2) [4]: 2
IC50 [5, 16]: > 100 µM
IC50 [5, 17]: > 100 µM
IC50 [5, 19]: > 100 µM
ratio (1)/(2) [5]: >16
IC50 [6, 16]: > 100 µM
IC50 [6, 17]: > 100 µM
IC50 [6, 19]: > 100 µM
ratio (1)/(2) [6]: >6

Cc1cn([C@H]2C[C@H](N=[N+]=[N-])[C@@H](CO)O2)c(=O)[nH]c1=O [AZT, zidovudine]
IC50 [1, 7]: 0.004 µM
IC50 [1, 8]: 0.06 µM
IC50 [1, 9]: 0.023 µM
IC50 [1, 10]: 0.084 µM
IC50 [1, 11]: 0.291 µM
IC50 [1, 12]: 0.041 µM
IC50 ([1]; Human immunodeficiency virus 1, Table 7, reference run of Example 11, read-out: Anti-HIV-1 activity IC50 (μM) recIIIB ref (2)): 0.047 µM
IC50 ([1]; Human immunodeficiency virus 1, Table 8, reference run of Example 12, read-out: Anti-HIV-1 activity IC50 (μM) recIIIB ref (2)): 0.041 µM
IC50 [2, 13]: 0.001 µM
IC50 [2, 14]: 0.002 µM
IC50 [2, 15]: 0.002 µM
ratio (1)/(2) [2]: 0.4
IC50 [3, 16]: 0.04 µM
IC50 [3, 17]: 0.05 µM
IC50 [3, 18]: 0.05 µM
ratio (1)/(2) [3]: 1
IC50 [4, 16]: 0.052 µM
IC50 [4, 17]: 0.05 µM
IC50 [4, 19]: 0.051 µM
ratio (1)/(2) [4]: 2
IC50 [5, 16]: 18.3 µM
IC50 [5, 17]: 22.3 µM
IC50 [5, 19]: 20.3 µM
ratio (1)/(2) [5]: 241
IC50 [6, 16]: > 100 µM
IC50 [6, 19]: > 100 µM
ratio (1)/(2) [6]: >344

Cc1cn([C@H]2C=C[C@@H](CO)O2)c(=O)[nH]c1=O [d4T, stavudine]
IC50 [1, 8]: 1.74 µM
IC50 [1, 9]: 1.37 µM
IC50 [1, 10]: 5.46 µM
IC50 [1, 11]: 12 µM
IC50 ([1]; Human immunodeficiency virus 1, read-out: Anti-HIV-1 activity IC50 (μM) recIIIB ref (2), Table 1, reference run of Example 5): 0.12 µM
IC50 ([2]; Human immunodeficiency virus 1, MT4, read-out: Anti-HIV-1 activity IC50 (μM) Exp. 1): 0.07 µM
IC50 ([2]; Human immunodeficiency virus 1, MT4, read-out: Anti-HIV-1 activity IC50 (μM) Exp. 2): 0.49 µM
IC50 ([2]; Human immunodeficiency virus 1, read-out: Anti-HIV-1 activity IC50 (μM) Mean (1)): 0.06 µM
ratio (1)/(2) [2]: 0.5
IC50 [3, 16]: 1.31 µM
IC50 [3, 17]: 0.97 µM
IC50 [3, 18]: 1.14 µM
ratio (1)/(2) [3]: 1
IC50 [4, 16]: 1.14 µM
IC50 [4, 17]: 1.66 µM
IC50 [4, 19]: 1.4 µM
ratio (1)/(2) [4]: 1
IC50 [5, 16]: 7.5 µM
IC50 [5, 17]: 7.1 µM
IC50 [5, 19]: 7.3 µM
ratio (1)/(2) [5]: 1
IC50 [6, 16]: > 100 µM
IC50 [6, 17]: > 100 µM
IC50 [6, 19]: > 100 µM
ratio (1)/(2) [6]: >8

Nc1ccn([C@H]2CC[C@@H](CO)O2)c(=O)n1 [ddC, zalcitabine]
IC50 [1, 7]: 0.38 µM
IC50 [1, 8]: 2.21 µM
IC50 [1, 9]: 1.62 µM
IC50 [1, 10]: 1.93 µM
IC50 [1, 11]: 3.44 µM
IC50 [2, 13]: 0.2 µM
IC50 [2, 14]: 0.2 µM
IC50 [2, 15]: 0.2 µM
ratio (1)/(2) [2]: 0.5
IC50 [3, 16]: 1.45 µM
IC50 [3, 17]: 1.47 µM
IC50 [3, 18]: 1.46 µM
ratio (1)/(2) [3]: 1
IC50 [4, 16]: 1.04 µM
IC50 [4, 17]: 1.39 µM
IC50 [4, 19]: 1.22 µM
ratio (1)/(2) [4]: 0.8
IC50 [5, 16]: 9.29 µM
IC50 [5, 17]: 8.51 µM
IC50 [5, 19]: 8.9 µM
ratio (1)/(2) [5]: 5
IC50 [6, 16]: 60.1 µM
IC50 [6, 17]: 73 µM
IC50 [6, 19]: 66.6 µM
ratio (1)/(2) [6]: 19
